Reference: EP2476410A1, “An analgesic peptide-containing composition for transbuccal administration” (priority 2011, dated 2012)
“Also recorded” adds a separate entry of the source. Read-outs that look alike come from different tables or passages of the source. Marks after values point to notes of the source that are not given here. Where a SMILES comes first, the peptide text is derived from it.

Key:
Swiss albino mice [1] = assay: Spontaneous locomotor activity; format: in vivo
Experimental: Swiss albino mice (∼30 - 40 g) were first placed into their respective chambers with a 20 min pre-treatment recording. Only mice showing at least 50 counts / 5 min are used in the experiments. Mice were administered saline (control), peptide (5 or 50 mg/kg) or morphine (50 mg/kg). Experimenters were blind to the identity of the drug solutions. After drug administration, the animals were placed into their individual chambers and their spontaneous locomotor activity was recorded by video tracking and the data were recorded for a period of 4 h. Statistical comparison was done by 2-way ANOVA.

Swiss albino mice [2] = assay: Rotarod test; format: in vivo
Experimental: Swiss albino mice (∼20-30 g) were first trained on the rotarod, which accelerated from 0-20 rpm over 5 min, prior to the experiment. Only mice that were capable of staying on the rotarod for the entire 5 min period were used in this experiment. Mice were either administered with the peptide (1 or 10 mg/kg, sublingual), or morphine (20 mg/kg, subcutaneous). After drug administration, the animals are placed on the rotarod and the time taken for the mice to slip was recorded (up to 5 min), and subsequently at 1h, 2h and 3h post peptide, and at 30 min, 1h30 min and 2h30 min post morphine. Statistical comparison was done by either Student's t-test or one-way ANOVA.

Swiss albino mice [3] = assay: GI motility (charcoal transit distance); format: in vivo; conditions: 30 min post-drug
Experimental: Swiss albino mice (30-35 g) were injected with saline, the peptide (5 mg/kg, 50 mg/kg intraperitoneal) or morphine (0.5 mg/kg, 5 mg/kg, 50 mg/kg intraperitoneal). The experimenters are blind to the identity of the solutions. All mice were administered 5 mg charcoal (0.1 ml of 50 mg/ml charcoal solution) via oral gavage immediately after drug administration. At 30 min post- drug / charcoal administration, the mice were sacrificed by cervical dislocation and the GI tract was exposed and the location of the charcoal identified. The distance the charcoal traveled in the intestine from the stomach was measured and expressed as % of total length of the GI tract.

Swiss albino mice [4] = assay: Hot plate model; format: in vivo; conditions: intraperitoneal administration, 30 min post-dose, positive control
Swiss albino mice [5] = assay: Acetic acid-induced writhing model; format: in vivo; conditions: 1 mg/kg, intraperitoneal
Experimental: Swiss albino mice (20-25 g, male) were administered with the peptide and at the appropriate post- dose time acetic acid (0.9% solution) was injected intraperitoneally (10 ml/kg). The mice were then placed in a transparent observer box and the total number of writhes per animal in the 15 min period after injection of acetic acid was recorded. A writhe is typically characterized by contractions of the abdominal musculature followed by extension of the hind limbs. Statistical comparison was done by either Student's t-test or one-way ANOVA.
At 1 h post administration time, acetic acid (0.9% solution) was injected intraperitoneally and the total number of writhes per animal was recorded, as described above. Upon completion of the experiment the animals were sacrificed and skull exposed. The accuracy of the injection was confirmed via injection of methyl-blue dye into the injection aperture left by the original injection. Only results from mice showing coloration of the ventricles are accepted.

[6] = Pharmacokinetics: plasma concentration and bioavailability by route (LC/MS/MS); format: in vivo, mice; conditions: for bioavailability: AUC compared to intravenous route
Experimental: The peptide (1, 5, 15 and 25 mg/kg, 0.5 ml/kg) was administered sublingually to mice. Upon reaching specified time points of 1, 5, 15, 30, 60 and 120 min post-dose, each mouse was sacrificed and blood samples were collected via cardiac puncture. Plasma samples were then extracted and analyzed under LC/MS/MS. Systemic exposure of the peptide was also studied through intravenous, oral (gavage) and intraperitoneal routes.

rats [7] = assay: Open-field test (anxiety score); format: in vivo
Excerpt: The open field test is generally used to assess anxiety level of rodents due to their natural aversion of open space and thus their preference to stay near the side rather than venturing to the more open central part of the open field.
The open field was divided into 16 equal size squares (25 x 25 cm). The 4 squares at the centre are assigned a low anxiety score (0) while those at the 4 corners are assigned a high anxiety score (2). The remaining 8 squares are assigned a medium score (1). A rat entering each square will be given the score assigned to that square. The sum total obtained within the 5-min test period divided by the number of squares entered is the anxiety score for that rat. Diazepam was used as positive control. Statistical comparison was done by Student's t-test.

Swiss albino mice [8] = assay: Toxicity, multiple dose regimen, once daily for 14 days; format: in vivo; conditions: for Appearance / Body Weight Day 1 / Body Weight Day 14 / Death: Intraperitoneal, daily
Experimental: Swiss albino mice were administered with the peptide at 8 mg/kg or 80 mg/kg (intraperitoneal) once daily for 14 days. Control mice received saline. At the end of the period, all mice were killed, dissected and observed for any obvious abnormality. Weights of the major organs, including brain, heart, lung, liver, spleen and kidney, were recorded.

rats [9] = assay: Elevated-plus maze test; format: in vivo
Excerpt: The Elevated-Plus Maze Test is generally used to assess anxiety level of rodents due to their natural aversion for height. Two opposite arms of the elevated-plus maze are enclosed by high walls (closed arms) while the other two are not (open arms). The test animals (rats) naturally prefer and spend more time in the closed arms.

mice = assay: Acute high dose toxicity (oral and intravenous); format: in vivo
Experimental: Acute toxicity was determined by both oral and intravenous administration of the peptide. Three mice were given a dose of peptide at 2 g/kg orally by gavage, 5 ml/kg.

Swiss albino mice [10] = assay: Toxicity, single dose regimen, 14 days observation; format: in vivo; conditions: for Appearance / Body Weight Day 1 / Body Weight Day 14 / Death: intraperitoneal, single dose
Experimental: Swiss albino mice were administered with the peptide at 8 mg/kg or 80 mg/kg (intraperitoneal) on day 1 and then observed for 14 days. Control mice received saline.
At the end of the period, all mice were sacrificed, dissected and observed for any obvious abnormality. Weights of the major organs, including brain, heart, lung, liver, spleen and kidney, were recorded.

Sprague-Dawley rats = assay: Acute effect on blood pressure, heart rate and respiration rate in anesthetized rats; format: in vivo; conditions: 5 and 20 mg/kg
Experimental: Sprague-Dawley rats (∼300 g) were anesthetized and the carotid artery was cannulated for blood pressure measurement. Drugs were administered by the pre-determined route. A pulse transducer was secured across the thoracic region of the rat to allow measurement of respiration rate. Blood pressure was recorded for at least 15 min or until a relatively stable blood pressure was observed.

[11] = cited from earlier work
[12] = 125 mg/kg, intravenous, only the 5 mice that survived
[13] = sublingual route (oxytocin in physiological saline solution)

With `CN1CC[C@]23c4c5ccc(O)c4O[C@H]2[C@@H](O)C=C[C@H]3[C@H]1C5` [Morphine, morphine] the locomotive activities (Swiss albino mice [1]; 50 mg/kg, intraperitoneal, between 60 min and 220 min post drug administration) was “significant increase in locomotive activities”, the “rotarod performance (time to slip)” value (Swiss albino mice [2]; 20 mg/kg, subcutaneous, 30 min, 1h30 min and 2h30 min post dose) was “No statistical significant effects” and the “rotarod performance (time to slip)” value (Swiss albino mice [2]; 20 mg/kg, subcutaneous, 30 min post drug administration, p=0.056) was “near significant decrease in performance”. The GI transit distance (Swiss albino mice [3]; 0.5 to 50 mg/kg intraperitoneal) was “dose-dependently decreased GI motility; also recorded: dose dependent inhibitory effect”, the ED50 (Swiss albino mice [4]; Mus musculus, ip, 0.5 h) was 0.82 mg/kg and the Emax (Swiss albino mice [4]) was 250 % of pre-dose latency. The “Time to first writhe” value (Swiss albino mice [5]) was 190.75* % saline control, the “Total writhes in 15 min” value (Swiss albino mice [5]) was 38.18* % saline control and the “Writhes in first 5 min” value (Swiss albino mice [5]) was 12.5* % saline control. The “Writhes in subsequent 10 min” value (Swiss albino mice [5]) was 48.56* % saline control.
For `C[C@@H](O)[C@H](NC(=O)[C@@H]1CCCN1C(=O)[C@H](Cc1ccccc1)NC(=O)[C@@H]1CCCN1C(=O)[C@@H](N)CC(N)=O)C(=O)N[C@@H](Cc1c[nH]c2ccccc12)C(=O)N[C@@H](CCCNC(=N)N)C(=O)N[C@@H](CCCCN)C(=O)N[C@@H](CCCNC(=N)N)C(=O)N1CCC[C@H]1C(=O)NCC(=O)O` [the peptide, NPFPTWRKRPG] (H-NPFPTWRKRPG-OH), the plasma concentration ([6]; 1 hour after administration, other routes of administration) was “approximately undetectable”, the bioavailability ([6]; intraperitoneal route) was 0.5% and the level at 1 h ([6]; mouse, plasma, 25 mg/kg, 1 hour after administration, sublingual route) was greater than 100 ng/mL. For the same compound, the bioavailability ([6]; mouse, plasma, ip, intraperitoneal route, read-out: bioavailability) was 0.5%, the bioavailability ([6]; mouse, plasma, oral route, read-out: bioavailability) was 4% and the bioavailability ([6]; oral route) was 4%. For the same compound, the bioavailability ([6]; sublingual route) was 44%, the plasma concentration ([6]; sublingual, doses below 5 mg/kg, by 30 min after administration) was “negligible” and the anxiety scores (rats [7]; intraperitoneally, 1 or 50 mg/kg, compared to saline control) was “did not show any effect on the anxiety scores”. For the same compound, the Appearance (Swiss albino mice [8]; 8 mg/kg) was “normal”, the “Body Weight Day 1” value (Swiss albino mice [8]; 8 mg/kg) was 21.4 ± 0.8 g and the “Body Weight Day 14” value (Swiss albino mice [8]; 8 mg/kg) was 30.0 ± 0.4 g. The Death (Swiss albino mice [8]; 8 mg/kg) was “nil”, the Death (Swiss albino mice [8]; 8 mg/kg, listed as peptide) was “death of one mouse” and the Appearance (Swiss albino mice [8]; 80 mg/kg) was “normal”. The “Body Weight Day 1” value (Swiss albino mice [8]; 80 mg/kg) was 21.3 ± 0.5 g, the “Body Weight Day 14” value (Swiss albino mice [8]; 80 mg/kg) was 28.1 ± 1.2 g and the Death (Swiss albino mice [8]; 80 mg/kg) was “Nil”. For the same compound, the “organ appearance and weights” value (Swiss albino mice [8]; 8 or 80 mg/kg intraperitoneal once daily for 14 days) was “All organs appeared normal and no differences in weight were observed”, the obvious toxicity (Swiss albino mice [8]; multiple high doses up to 80 mg/kg for 14 days) was “did not cause any obvious toxicity” and the “time spent in the open or closed arms” value (rats [9]; 1 or 50 mg/kg, 30 min or 3 h post-dose, compared to saline) was “did not produce any significant changes”. The locomotive activities (Swiss albino mice [1]; 5 or 50 mg/kg, within 4 h of drug administration, compared to control) was “no significant difference”, the “rotarod performance (time to slip)” value (Swiss albino mice [2]; 1 or 10 mg/kg, sublingual, 1h, 2h and 3h post dose) was “No statistical significant effects” and the “Body Weight (g, 2 weeks postdose)” value (mice; 62.5 mg/kg, intravenous) was 34.7 ± 1.5 g. For the same compound, the “Body Weight (g, predose)” value (mice; 62.5 mg/kg, intravenous) was 30.0 ± 1.0 g, the behaviour after administration (mice; 62.5 mg/kg, intravenous) was “appeared sedated after peptide but recovered after several hours” and the mice that died (mice; 125 mg/kg intravenous) was “four out of nine”. For the same compound, the time to death (mice; 125 mg/kg intravenous) was 5 to 10 min, the “behaviour of surviving mice” value (mice; 125 mg/kg intravenous, five surviving mice) was “appeared heavily sedated for several hours” and the “Body Weight (g, 2 weeks postdose)” value (mice; [12]) was 33.6 ± 1.5 g. The “Body Weight (g, predose)” value (mice; [12]) was 28.6 ± 1.3 g, the behaviour after administration (mice; 2 g/kg oral by gavage) was “appeared sedated with much decreased activity” and the “time to recovery from sedation” value (mice; 2 g/kg oral, listed as peptide) was “about 1 h”. The “Body Weight (g, 2 weeks postdose)” value (mice; 2g/kg, oral) was 33.0 ± 1.7 g, the “Body Weight (g, predose)” value (mice; 2g/kg, oral) was 29.3 ± 1.5 g and the “time to recovery from sedation” value (mice; 2g/kg, oral) was no more than 1 h. For the same compound, the LD50 (mice; administered intravenously, mice) was “about 125 mg/kg”, the Appearance (Swiss albino mice [10]; 8 mg/kg) was “normal” and the “Body Weight Day 1” value (Swiss albino mice [10]; 8 mg/kg) was 26.2 ± 0.4 g. For the same compound, the “Body Weight Day 14” value (Swiss albino mice [10]; 8 mg/kg) was 31.7 ± 0.5 g, the Death (Swiss albino mice [10]; 8 mg/kg) was “nil” and the Appearance (Swiss albino mice [10]; 80 mg/kg) was “normal”. The “Body Weight Day 1” value (Swiss albino mice [10]; 80 mg/kg) was 25.8 ± 0.6 g, the “Body Weight Day 14” value (Swiss albino mice [10]; 80 mg/kg) was 31.1 ± 0.7 g and the Death (Swiss albino mice [10]; 80 mg/kg) was “Nil”. The “organ appearance and weights” value (Swiss albino mice [10]; single dose 8 or 80 mg/kg intraperitoneal, day 14) was “All organs appeared normal and no differences in weight were observed”, the obvious toxicity (Swiss albino mice [10]; single high dose up to 80 mg/kg) was “did not cause any obvious toxicity” and the GI transit distance (Swiss albino mice [3]; 5 mg/kg and 50 mg/kg intraperitoneal) was “did not show any significant reduction”. The GI transit distance (Swiss albino mice [3]; 5 mg/kg and 50 mg/kg intraperitoneal, listed as The peptide) was “does not show any significant effect”, the blood pressure (Sprague-Dawley rats; intravenous route) was “dose dependent drop” and the blood pressure (Sprague-Dawley rats; intravenous route, listed as Peptide) was “decreased in blood pressure”. For the same compound, the blood pressure (Sprague-Dawley rats; sublingual or intraperitoneal routes) was “no change in blood pressure” and the blood pressure (Sprague-Dawley rats; sublingual or intraperitoneal routes, listed as peptide) was “did not cause any changes in blood pressure”.
For oxytocin, the bioavailability ([11]; formulation with 0.75% w/w sodium taurocholate (tablet form)) is listed as 27%, the bioavailability [11, 13] is listed as 0.007-0.07% and the bioavailability ([11]; sublingual route (oxytocin in physiological saline solution), listed as Oxytocin) is listed as 0.007 - 0.07%.
In the case of desmopressin, the bioavailability [11, 13] is given as “about 0.25%”.
With `CN1C(=O)CN=C(c2ccccc2)c2cc(Cl)ccc21` [diazepam] the anxiety score (rats [7]; positive control) was “decreased the anxiety score significantly” and the “times spent in open and closed arms” value (rats [9]; compared to DMSO-controls) was “reversed the times spent in open and closed arms”.
